This passage reports IC50 results from patent US8455497B2, “Inhibitors of aspartyl protease” (Vertex Pharmaceuticals Incorporated, priority 1999, dated 2013).

Read-outs that look alike come from different tables or passages of the source.

One assay relates to HIV-1 (strain IIIB). Nature of the assay: Antiviral activity assay in MT4 cells (propidium iodide based). The following applies: wild type HIV-1 virus, MT4 cells, read-out: Wildtype virus - IC50. It is filed as cell-based. The method in brief:
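Compound serial dilutions in RPMI/FCS received MT4 cells pre-infected 1 hr at 37°C with HIV-1 IIIB at 100×TCID50. After 5 days' culture and Nonidet-40 lysis, well DNA content was measured by propidium iodide dye; mock-infected cells served as control.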

Assay [1] concerns EP13 multi protease inhibitor resistant virus. Nature of the assay: Anti-viral activity against resistant virus EP13 in MT4 cells. It is filed as cell-based, HIV-1. The method in brief: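 MT4 cells infected for 1 h at 37 °C, MOI 100×TCID50, then diluted 6-fold onto pre-diluted compound and cultured 5 days (5% CO2). Viable-cell DNA content estimated by propidium iodide. EP13 carries protease mutations M46I, L63P, A71V, V82F/L, I84V, no RT mutations.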

The test system of assay [2] is D545701-14 multi protease inhibitor resistant virus. Nature of the assay: Anti-viral activity against resistant virus D545701-14 in MT4 cells. It is filed as cell-based, HIV-1.
Setting [3] is: Human immunodeficiency virus 1, IIIB.
Setting [4] is: Human immunodeficiency virus 1, MT4, read-out: EP13 mutant IC50, EP13 multi protease inhibitor resistant virus, MT4 cells.
[5] abbreviates: Human immunodeficiency virus 1, MT4, read-out: D545701-14 mutant - IC50, D545701-14 multi protease inhibitor resistant virus, MT4 cells.

As a reminder, the IC50 is the concentration that gives 50% inhibition. Consider `CC(C)CN(C[C@@H](O)[C@H](Cc1ccc(OCc2nnsc2Cl)cc1)NC(=O)O[C@H]1CO[C@H]2OCC[C@H]21)S(=O)(=O)c1ccc2c(c1)OCO2` [Compound 386, (3R,3aS,6aR)-hexahydrofuro[2,3-b]furan-3-yl (1S,2R)-3-[(1,3-benzodioxol-5-ylsulfonyl)(isobutyl)amino]-1-{4-[(5-chloro-1,2,3-thiadiazol-4-yl)methoxy]benzyl}-2-hydroxypropylcarbamate], for which the IC50 in the assay with HIV-1 (strain IIIB) (setting [3]) is 1 to 10 nM; in assay [1] (setting [4]), 1 to 10 nM; in assay [2] (setting [5]), 10 to 100 nM.
In the case of `CC(C)CN(C[C@@H](O)[C@H](Cc1ccc(OCCCC(=O)N(C)C)cc1)NC(=O)OC1CO[C@H]2OCC[C@@H]12)S(=O)(=O)c1ccc2c(c1)OCO2` (stereo in doubt) [Compound 287, (3R,3aS,6aR)-hexahydrofuro[2,3-b]furan-3-yl (1S,2R)-3-[(1,3-benzodioxol-5-ylsulfonyl)(isobutyl)amino]-1-{4-[4-(dimethylamino)-4-oxobutoxy]benzyl}-2-hydroxypropylcarbamate], the IC50 (in the assay with HIV-1 (strain IIIB) (setting [3]); in assay [1] (setting [4]); in assay [2] (setting [5])) was 1 to 10 nM throughout.
Turning to `CC(C)CN(C[C@@H](O)[C@H](Cc1ccc(OCc2ccc3ccccc3c2)cc1)NC(=O)O[C@H]1CO[C@H]2OCC[C@H]21)S(=O)(=O)c1ccc2c(c1)OCO2` [Compound 376, (3R,3aS,6aR)-hexahydrofuro[2,3-b]furan-3-yl (1S,2R)-3-[(1,3-benzodioxol-5-ylsulfonyl)(isobutyl)amino]-2-hydroxy-1-[4-(2-naphthylmethoxy)benzyl]propylcarbamate], the IC50 is 1 to 10 nM with HIV-1 (strain IIIB) (setting [3]), 10 to 100 nM in assay [1] (setting [4]) and 10 to 100 nM in assay [2] (setting [5]).
Regarding `CC(C)CN(C[C@@H](O)[C@H](Cc1ccc(OCCCNc2ncccn2)cc1)NC(=O)OC1CO[C@H]2OCC[C@@H]12)S(=O)(=O)c1ccc2c(c1)OCO2` (stereo in doubt) [Compound 271, (3R,3aS,6aR)-hexahydrofuro[2,3-b]furan-3-yl (1S,2R)-3-[(1,3-benzodioxol-5-ylsulfonyl)(isobutyl)amino]-2-hydroxy-1-{4-[3-(2-pyrimidinylamino)propoxy]benzyl}propylcarbamate], the IC50 (in the assay with HIV-1 (strain IIIB) (setting [3]); in assay [1] (setting [4]); in assay [2] (setting [5])) was 1 to 10 nM throughout.
Regarding `CC(C)CN(C[C@@H](O)[C@H](Cc1ccc(OCc2ccccn2)cc1)NC(=O)O[C@@H]1CO[C@H]2OCC[C@H]21)S(=O)(=O)c1ccc(N)cc1` [Compound 299, (3S,3aS,6aR)-hexahydrofuro[2,3-b]furan-3-yl (1S,2R)-3-[[(4-aminophenyl)sulfonyl]-(isobutyl)amino]-2-hydroxy-1-[4-(2-pyridinylmethoxy)benzyl]propylcarbamate], the IC50 (in the assay on HIV-1 (strain IIIB) (setting [3]); in assay [1] (setting [4]); in assay [2] (setting [5])) was 1 to 10 nM throughout.
Regarding `CC(C)CN(C[C@@H](O)[C@H](Cc1ccc(OCCCCN(C)C)cc1)NC(=O)O[C@H]1CO[C@H]2OCC[C@H]21)S(=O)(=O)c1ccc2c(c1)OCO2` [Compound 275, (3R,3aS,6aR)-hexahydrofuro[2,3-b]furan-3-yl (1S,2R)-3-[(1,3-benzodioxol-5-ylsulfonyl)(isobutyl)amino]-1-{4-[4-(dimethylamino)butoxy]benzyl}-2-hydroxypropylcarbamate], the IC50 fell in the range of 10 to 100 nM in the assay on HIV-1 (strain IIIB) (setting [3]), 1 to 10 nM in assay [1] (setting [4]) and 10 to 100 nM in assay [2] (setting [5]).
With `CC(C)CN(C[C@@H](O)[C@H](Cc1ccc(OCCCn2ccnc2)cc1)NC(=O)O[C@H]1CO[C@H]2OCC[C@H]21)S(=O)(=O)c1ccc2c(c1)OCO2` [Compound 278, (3R,3aS,6aR)-hexahydrofuro[2,3-b]furan-3-yl (1S,2R)-3-[(1,3-benzodioxol-5-ylsulfonyl)(isobutyl)amino]-2-hydroxy-1-{4-[3-(1H-imidazol-1-yl)propoxy]benzyl}propylcarbamate], the IC50 with HIV-1 (strain IIIB) (setting [3]) lay in the range of 10 to 100 nM; in assay [1] (setting [4]) it was 1 to 10 nM; in assay [2] (setting [5]), 1 to 10 nM.
With `CC(C)CN(C[C@@H](O)[C@H](Cc1ccc(OCc2ccc(F)c(F)c2)cc1)NC(=O)O[C@H]1CO[C@H]2OCC[C@H]21)S(=O)(=O)c1ccc2c(c1)OCO2` [Compound 379, (3R,3aS,6aR)-hexahydrofuro[2,3-b]furan-3-yl (1S,2R)-3[(1,3-benzodioxol-5-ylsulfonyl)(isobutyl)amino]-1-{4-[(3,4-difluorobenzyl)oxy]benzyl}-2-hydroxypropylcarbamate], the IC50 (in the assay on HIV-1 (strain IIIB) (setting [3]); in assay [1] (setting [4]); in assay [2] (setting [5])) was 1 to 10 nM in each case.
Consider `CC(C)CN(C[C@@H](O)[C@H](Cc1ccc(OCc2ccccc2C#N)cc1)NC(=O)O[C@H]1CO[C@H]2OCC[C@H]21)S(=O)(=O)c1ccc2c(c1)OCO2` [Compound 382, (3R,3aS,6aR)-hexahydrofuro[2,3-b]furan-3-yl (1S,2R)-3-[(1,3-benzodioxol-5-ylsulfonyl)(isobutyl)amino]-1-{4-[(2-cyanobenzyl)oxy]benzyl}-2-hydroxypropylcarbamate], for which the IC50 (in the assay with HIV-1 (strain IIIB) (setting [3]); in assay [1] (setting [4]); in assay [2] (setting [5])) was 1 to 10 nM in each case.
For `CC(C)CN(C[C@@H](O)[C@H](Cc1ccc(OCC(N)=O)cc1)NC(=O)O[C@H]1CO[C@H]2OCC[C@H]21)S(=O)(=O)c1ccc2c(c1)OCO2` [Compound 314, (3R,3aS,6aR)-Hexahydrofuro[2,3-b]furan-3-yl (1S,2R)-1-[4-(2-amino-2-oxoethoxy)benzyl]-3-[(1,3-benzodioxol-5-ylsulfonyl)(isobutyl)amino]-2-hydroxypropylcarbamate], the IC50 (in the assay on HIV-1 (strain IIIB) (setting [3]); in assay [1] (setting [4]); in assay [2] (setting [5])) was 10 to 100 nM throughout.
`CC(C)CN(C[C@@H](O)[C@H](Cc1ccc(OCCCN2CCN(C)CC2)cc1)NC(=O)O[C@H]1CO[C@H]2OCC[C@H]21)S(=O)(=O)c1ccc2c(c1)OCO2` [Compound 282, (3R,3aS,6aR)-hexahydrofuro[2,3-b]furan-3-yl (1S,2R)-3-[(1,3-benzodioxol-5-ylsulfonyl)(isobutyl)amino]-2-hydroxy-1-{4-[3-(4-methyl-1-piperazinyl)propoxy]benzyl}propylcarbamate]: the IC50 in the assay with HIV-1 (strain IIIB) (setting [3]) was in the range of 10 to 100 nM; in assay [1] (setting [4]), 1 to 10 nM; in assay [2] (setting [5]), 10 to 100 nM.
For `CCCCNC(=O)CCCOc1ccc(C[C@H](NC(=O)O[C@H]2CO[C@H]3OCC[C@H]32)[C@H](O)CN(CC(C)C)S(=O)(=O)c2ccc3c(c2)OCO3)cc1` [Compound 288, (3R,3aS,6aR)-hexahydrofuro[2,3-b]furan-3-yl (1S,2R)-3-[(1,3-benzodioxol-5-ylsulfonyl)(isobutyl)amino]-1-{4-[4-(butylamino)-4-oxobutoxy]benzyl}-2-hydroxypropylcarbamate], the IC50 (in the assay on HIV-1 (strain IIIB) (setting [3]); in assay [1] (setting [4]); in assay [2] (setting [5])) was 1 to 10 nM each time.
For `CC(C)CN(C[C@@H](O)[C@H](Cc1ccc(OCCCNc2cc[nH]n2)cc1)NC(=O)OC1CO[C@H]2OCC[C@@H]12)S(=O)(=O)c1ccc2c(c1)OCO2` (stereo in doubt) [Compound 281, (3R,3aS,6aR)-hexahydrofuro[2,3-b]furan-3-yl (1S,2R)-3-[(1,3-benzodioxol-5-ylsulfonyl)(isobutyl)amino]-2-hydroxy-1-{4-[3-(1H-pyrazol-3-ylamino)propoxy]benzyl}propylcarbamate], the IC50 (in the assay with HIV-1 (strain IIIB) (setting [3]); in assay [1] (setting [4]); in assay [2] (setting [5])) was 1 to 10 nM in each case.
Turning to `CC(C)CN(C[C@@H](O)[C@H](Cc1ccc(OCCc2ccc(F)cc2)cc1)NC(=O)O[C@H]1CO[C@H]2OCC[C@H]21)S(=O)(=O)c1ccc2c(c1)OCO2` [Compound 205], the IC50 in the assay with HIV-1 (strain IIIB) fell in the range of 1 to 10 nM; in assay [1] (EP13 multi protease inhibitor resistant virus, MT4 cells, read-out: EP13 mutant IC50) it was 10 to 100 nM; in assay [2] (D545701-14 multi protease inhibitor resistant virus, MT4 cells, read-out: D545701-14 mutant - IC50) it was 10 to 100 nM.
For the compound `Cc1cccc(COc2ccc(C[C@H](NC(=O)O[C@H]3CO[C@H]4OCC[C@H]43)[C@H](O)CN(CC(C)C)S(=O)(=O)c3ccc4c(c3)OCO4)cc2)c1` [Compound 377, (3R,3aS,6aR)-hexahydrofuro[2,3-b]furan-3-yl (1S,2R)-3-[(1,3-benzodioxol-5-ylsulfonyl)(isobutyl)amino]-2-hydroxy-1-{4-[(3-methylbenzyl)oxy]benzyl}propylcarbamate], the results for the half-maximal inhibitory concentration (IC50) (in the assay with HIV-1 (strain IIIB) (setting [3]); in assay [1] (setting [4]); in assay [2] (setting [5])) were 1 to 10 nM, 1 to 10 nM and 10 to 100 nM, respectively.
On to `CC(C)CN(C[C@@H](O)[C@H](Cc1ccc(OC(=O)NC(C)C)cc1)NC(=O)O[C@H]1CO[C@H]2OCC[C@H]21)S(=O)(=O)c1ccc2c(c1)OCO2` [Compound 310, (3R,3aS,6aR)-Hexahydrofuro[2,3-b]furan-3-yl (1S,2R)-3-[(1,3-benzodioxol-5-ylsulfonyl)(isobutyl)amino]-2-hydroxy-1-(4-{[(isopropylamino)carbonyl]oxy}benzyl)propylcarbamate], for which the IC50 is 1 to 10 nM in the assay on HIV-1 (strain IIIB) (setting [3]), 1 to 10 nM in assay [1] (setting [4]) and 10 to 100 nM in assay [2] (setting [5]).
